Assay results as given in patent US10760110B2, “Antibiotic testing and screening system” (priority 2017, dated 2020).
Converted amounts (≈) assume the structure as drawn. Read-outs that look alike come from different tables or passages of the source.

What was measured:
[1] = test system: A. baumannii KW1 strains with tet resistance gene plasmids; assay: Etest MIC of tetracyclines, tet resistance gene (Table 20); format: cell-based, Acinetobacter baumannii; conditions: for MIC: Acinetobacter baumannii; for increase in the MIC: production of Tet(A), Tet(B) or Tet(C)
Experimental: (§1) DNA fragments of the resistance genes along with their flanking regions were amplified from clinical plasmids via PCR with specific primer pairs. The resulting PCR fragments were digested and then cloned into the plasmid pYMAb5 or pYMAb5Tc. The resulting plasmids were then transformed into A. baumannii KW1 via electroporation.
(§2) The MICs of antibiotics were determined using the Etest (Biodisk AB, Sweden) according to the manufacturer's instructions. The MICs from the Etest, which fall between standard two-fold dilutions, were rounded up to the next highest two-fold value. The MICs of ceftazidime and cefotaxime against K. pneumoniae NVT1001 harbouring the pACYC177 plasmid with blaOXA-48 were further determined using a broth microdilution test according to the recommendations of the CLSI,^25 and the results were interpreted according to the breakpoints established by the CLSI in 2017.^25 Meanwhile, due to the lack of CLSI breakpoints in 2016 and 2017, the results for cephalothin were interpreted according to the breakpoints established by the CLSI in 2015,^26 and the results for moxifloxacin were interpreted according to the breakpoints established by the EUCAST in 2017.^27

[2] = test system: K. pneumoniae NVT1001 and ΔramR strains with tet resistance gene plasmids; assay: Etest MIC of tetracyclines, AcrAB-TolC overexpression (ΔramR) and/or tet resistance gene (Table 14); format: cell-based, Klebsiella pneumoniae; conditions: Klebsiella pneumoniae
Experimental: DNA fragments of the resistance genes along with their flanking regions were amplified from clinical plasmids via PCR with specific primer pairs. The resulting PCR fragments were digested and then cloned into the plasmid pACYC177 or pACYC184. The resulting plasmids were then transformed into K. pneumoniae strain NVT1001 via electroporation. The recombinant bacteria were plated onto LB agar plates containing kanamycin (50 mg/L) or chloramphenicol (50 mg/L), and the presence of the cloned gene was confirmed via PCR and DNA sequencing.
as §2

[3] = test system: K. pneumoniae NVT1001 and its ΔompK35/36 and/or ΔramR mutants; assay: Etest MIC, OmpK35/36 loss and AcrAB-TolC overexpression (ΔramR) strains (Table 6); format: cell-based, Klebsiella pneumoniae; conditions: Klebsiella pneumoniae
Outline: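 MICs were read by Etest strip following the manufacturer's instructions, and values falling between standard two-fold dilutions were rounded up to the next two-fold step. Ceftazidime and cefotaxime were also tested by CLSI broth microdilution and interpreted against CLSI 2017 breakpoints; cephalothin used CLSI 2015 and moxifloxacin EUCAST 2017.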

[4] = test system: K. pneumoniae NVT1001 ΔramRΔompK35/36 mutant and its revertants; assay: Etest MIC, ΔramRΔompK35/36 mutant and its revertants (Table 7); format: cell-based; conditions: Klebsiella pneumoniae
[5] = test system: A. baumannii KW1 and its AdeR/AdeS mutants; assay: Etest MIC, AdeABC overexpression via AdeR or AdeS mutation (Table 16); format: cell-based, Acinetobacter baumannii
From the text: DNA fragments of the entire adeR, adeS, gyrA and parC along with their flanking regions were amplified from A. baumannii KW1 using PCR with specific primer pairs and then cloned into plasmid pUT-KB. The QuikChange site-directed mutagenesis kit (Stratagene) was used to generate mutations in the adeR, adeS, gyrA and parC genes in the plasmids using the methods described by the manufacturer. For homologous recombination, plasmids containing mutations in the adeR, adeS, gyrA or parC gene were transformed into E. coli S17-1 λpir^23 via electroporation and mobilized into A. baumannii KW1 via conjugation. Single-crossover strains were selected from Luria-Bertani (LB) plates supplemented with cefotaxime (1 μg/ml) and kanamycin ([…]), as the growth of non-A. baumannii contaminants is suppressed by cefotaxime (1 μg/ml). The kanamycin-resistant transconjugants were selected and the insertion of plasmids was verified via PCR. After incubation in 20 ml brain heart infusion (BHI) broth for 6 hours in the absence of kanamycin at 37° C., the fully grown cultures were spread onto LB plates supplemented with 10% sucrose. After the double crossover occurred, the sucrose-resistant and kanamycin-susceptible colonies were selected, and the gene mutations were confirmed via PCR.
as §2

[6] = test system: A. baumannii KW1 strains with β-lactamase plasmids; assay: Etest MIC of β-lactams, extended-spectrum β-lactamase, AmpC β-lactamase or carbapenemase (Table 18); format: cell-based, Acinetobacter baumannii
Experimental: as §1, §2

[7] = NVT1001, Tet(A) on pACYC177, read-out: MIC
[8] = NVT1001, Tet(B) on pACYC177, read-out: MIC
[9] = NVT1001, Tet(C) on pACYC177, read-out: MIC
[10] = NVT1001, Tet(D) on pACYC177, read-out: MIC
[11] = NVT1001, Tet(M) on pACYC177, read-out: MIC

With CN(C)c1ccc(O)c2c1C[C@H]1C[C@H]3[C@H](N(C)C)C(O)=C(C(N)=O)C(=O)[C@@]3(O)C(O)=C1C2=O [Minocycline] the MIC ([1]; KW1, Tet(A) on pYMAb5) was 1.5 µg/mL, the MIC ([1]; KW1, Tet(B) on pYMAb5) was 1.5 µg/mL and the MIC ([1]; KW1, Tet(M) on pYMAb5) was 2 µg/mL. For the same molecule, the MIC ([1]; KW1, no supplemental plasmid) was 0.38 µg/mL, the MIC ([1]; KW1 with shuttle vector pYMAb5) was 0.25 µg/mL and the “increase in the MIC” value [1] was 4 fold. The MIC [2, 7] was 32 µg/mL, the MIC [2, 8] was 32 µg/mL and the MIC [2, 9] was 4 µg/mL. For the same molecule, the MIC [2, 10] was 128 µg/mL, the MIC [2, 11] was 32 µg/mL and the MIC ([2]; NVT1001, no supplemental plasmid, read-out: MIC) was 4 µg/mL. The MIC ([2]; ΔramR, Tet(A) on pACYC177) was > 256 µg/mL, the MIC ([2]; ΔramR, Tet(B) on pACYC177) was > 256 µg/mL and the MIC ([2]; ΔramR, Tet(C) on pACYC177) was 64 µg/mL. For the same molecule, the MIC ([2]; ΔramR, Tet(D) on pACYC177) was > 256 µg/mL, the MIC ([2]; ΔramR, Tet(M) on pACYC177) was > 256 µg/mL and the MIC ([2]; ΔramR, no supplemental plasmid) was 64 µg/mL. The MIC ([3]; WT, NVT1001, read-out: MIC) was 4 µg/mL (≈ 8.74 µM), the MIC ([3]; Δ35, ΔompK35 mutant) was 4 µg/mL (≈ 8.74 µM) and the MIC ([3]; Δ35/36, ΔompK35/36 mutant) was 4 µg/mL (≈ 8.74 µM). It also gave an MIC ([3]; Δ36, ΔompK36 mutant) of 4 µg/mL (≈ 8.74 µM), an MIC ([3]; ΔramR mutant) of 64 µg/mL (≈ 140 µM) and an MIC ([3]; ΔramRΔ35, ΔramRΔompK35 mutant) of 128 µg/mL (≈ 280 µM). The MIC ([3]; ΔramRΔ35/36, ΔramRΔompK35/36 mutant) was 128 µg/mL (≈ 280 µM), the MIC ([3]; ΔramRΔ36, ΔramRΔompK36 mutant) was 128 µg/mL (≈ 280 µM) and the MIC ([4]; ΔramRΔompK35/36::ompK35/36 revertant) was 128 µg/mL. It also gave an MIC ([4]; ΔramRΔompK35/36::ompK35 revertant) of 128 µg/mL, an MIC ([4]; ΔramRΔompK35/36::ompK36 revertant) of 128 µg/mL and an MIC ([4]; ΔramRΔompK35/36::ramR revertant) of 4 µg/mL. The MIC ([4]; ΔramRΔompK35/36::ramR::ompK35/36 revertant) was 4 µg/mL, the MIC ([4]; ΔramRΔompK35/36::ramR::ompK35 revertant) was 4 µg/mL and the MIC ([4]; ΔramRΔompK35/36::ramR::ompK36 revertant) was 4 µg/mL. For the same molecule, the MIC ([4]; ΔramRΔompK35/36 mutant) was 128 µg/mL.

CC(C)(O/N=C(\C(=O)N[C@@H]1C(=O)N2C(C(=O)[O-])=C(C[n+]3ccccc3)CS[C@H]12)c1csc(N)n1)C(=O)O [CAZ] gave an MIC ([5]; A91V mutant (AdeR)) of 16 µg/mL, an MIC ([5]; A94V mutant (AdeS)) of 8 µg/mL and an MIC ([5]; D20N mutant (AdeR)) of 12 µg/mL. For the same molecule, the MIC ([5]; G30D mutant (AdeS)) was 8 µg/mL, the MIC ([5]; KW1) was 4 µg/mL and the MIC ([5]; P116L mutant (AdeR)) was 8 µg/mL. For the same molecule, the MIC ([5]; R152K mutant (AdeS)) was 8 µg/mL, the MIC ([5]; T153M mutant (AdeS)) was 8 µg/mL and the MIC ([6]; KW1, no supplemental plasmid) was 4 µg/mL. The MIC ([6]; KW1 with ADC-30 on pYMAb5) was >256 µg/mL, the MIC ([6]; KW1 with CTX-M-15 on pYMAb5) was >256 µg/mL and the MIC ([6]; KW1 with IMP-1 on pYMAb5) was 48 µg/mL. For the same molecule, the MIC ([6]; KW1 with NDM-1 on pYMAb5) was >256 µg/mL, the MIC ([6]; KW1 with OXA-23 on pYMAb5) was 3 µg/mL and the MIC ([6]; KW1 with OXA-58 on pYMAb5) was 3 µg/mL. The MIC ([6]; KW1 with OXA-66 on pYMAb5) was 3 µg/mL, the MIC ([6]; KW1 with OXA-72 on pYMAb5) was 3 µg/mL and the MIC ([6]; KW1 with VEB-3 on pYMAb5) was >256 µg/mL. The MIC ([6]; KW1 with VIM-1 on pYMAb5) was >256 µg/mL and the MIC ([6]; KW1 with shuttle vector pYMAb5) was 3 µg/mL.

With CN(C)[C@@H]1C(O)=C(C(N)=O)C(=O)[C@@]2(O)C(O)=C3C(=O)c4c(O)cccc4[C@@](C)(O)[C@H]3C[C@@H]12 [Tetracycline, tetracycline] the MIC ([1]; KW1, Tet(A) on pYMAb5) was 128 µg/mL, the MIC ([1]; KW1, Tet(B) on pYMAb5) was > 256 µg/mL and the MIC ([1]; KW1, Tet(M) on pYMAb5) was 48 µg/mL. The MIC ([1]; KW1, no supplemental plasmid) was 3 µg/mL, the MIC ([1]; KW1 with shuttle vector pYMAb5) was 3 µg/mL and the “increase in the MIC” value [1] was 4 fold. For the same molecule, the MIC [2, 7] was > 256 µg/mL, the MIC [2, 8] was > 256 µg/mL and the MIC [2, 9] was 16 µg/mL. For the same molecule, the MIC [2, 10] was > 256 µg/mL, the MIC [2, 11] was 16 µg/mL and the MIC ([2]; ΔramR, Tet(A) on pACYC177) was > 256 µg/mL. The MIC ([2]; ΔramR, Tet(B) on pACYC177) was > 256 µg/mL, the MIC ([2]; ΔramR, Tet(C) on pACYC177) was 256 µg/mL and the MIC ([2]; ΔramR, Tet(D) on pACYC177) was > 256 µg/mL. For the same molecule, the MIC ([2]; ΔramR, Tet(M) on pACYC177) was 128 µg/mL, the MIC ([3]; Δ36, ΔompK36 mutant) was 2 µg/mL (≈ 4.5 µM) and the MIC ([5]; Acinetobacter baumannii, A91V mutant (AdeR)) was 12 µg/mL. The MIC ([5]; Acinetobacter baumannii, A94V mutant (AdeS)) was 6 µg/mL, the MIC ([5]; Acinetobacter baumannii, D20N mutant (AdeR)) was 8 µg/mL and the MIC ([5]; Acinetobacter baumannii, G30D mutant (AdeS)) was 8 µg/mL. It also gave an MIC ([5]; Acinetobacter baumannii, KW1, read-out: MIC) of 3 µg/mL, an MIC ([5]; Acinetobacter baumannii, P116L mutant (AdeR)) of 6 µg/mL and an MIC ([5]; Acinetobacter baumannii, R152K mutant (AdeS)) of 6 µg/mL. It also gave an MIC ([5]; Acinetobacter baumannii, T153M mutant (AdeS)) of 8 µg/mL.
